# Measurements reported in patent US20210077559A1, “Treating Autoimmune Disorders with Acetylcholinesterase Inhibitors” (priority 2018, published 2021).
# Assays:
# Demodex mites [1] = conditions: dichlorvos 1%, one patient; PCT Pub. No. WO 2015/017328; cited from earlier work
# Demodex mites [2] = assay: In vitro Demodex survival time assay; conditions: in vitro assay (FIG. 3 and 4)
# Description: FIG. 4 summarizes the activity of 10% chloroquine in water relative to a water control on activity against Demodex mites in an in vitro assay, with an LT50 of 31.6 hours for chloroquine compared to 44.8 hours for the water control, illustrating the inactivation effect of chloroquine on Demodex.
# Example 4: In vitro efficacy and mite lifetimes: Relative efficacy of various formulations are evaluated with a Demodex survival time experiments. FIG. 3 tabulates Demodex survival time, expressed in terms of LT50 (time at which 50% of Demodex mites are killed) and/or average minutes to death for various active agents.
Structure (SMILES),remission of Papulopostular Rosacea (PPR) (Demodex mites [1]),activity against Demodex mites (Demodex mites [2])
COP(=O)(OC)OC=C(Cl)Cl [dichlorvos],complete and continued remission,–
CCN(CC)CCCC(C)Nc1ccnc2cc(Cl)ccc12 (centres unmarked) [chloroquine],–,has activity against Demodex mites
